Laboratory results published in patent US5744462A, “Steroids useful as anti-cancer and anti-obesity agents” (Research Corporation Technologies, Inc., priority 1995, dated 1998).
“And” between values parts separate entries of the source, which are not always exact repeats. Equal entries are not always repeated. “Also recorded” adds a separate entry of the source.

Experiments:
mouse skin DNA = assay: (3H) DMBA binding to skin DNA; format: in vivo, mouse (A/J); conditions: for effect on 3H-DMBA binding to skin DNA: oral, mice, doses well below 400 mg/kg
[1] = Estrogenic / androgenic side-effects, general statements; conditions: in vivo
[2] = target: purified bovine adrenal G6PDH (Bos taurus, UniProt F1MMK2); assay: G6PDH inhibition test; format: biochemical; conditions: individual determinations; for inhibition at 10 µM / inhibition at 1 µM / inhibition at 0.1 µM: read-out: Percent Inhibition of G6PDH
Sequence of purified bovine adrenal G6PDH (F1MMK2 31-70): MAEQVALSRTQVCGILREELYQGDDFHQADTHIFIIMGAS
Sequence of purified bovine adrenal G6PDH (F1MMK2 101-575): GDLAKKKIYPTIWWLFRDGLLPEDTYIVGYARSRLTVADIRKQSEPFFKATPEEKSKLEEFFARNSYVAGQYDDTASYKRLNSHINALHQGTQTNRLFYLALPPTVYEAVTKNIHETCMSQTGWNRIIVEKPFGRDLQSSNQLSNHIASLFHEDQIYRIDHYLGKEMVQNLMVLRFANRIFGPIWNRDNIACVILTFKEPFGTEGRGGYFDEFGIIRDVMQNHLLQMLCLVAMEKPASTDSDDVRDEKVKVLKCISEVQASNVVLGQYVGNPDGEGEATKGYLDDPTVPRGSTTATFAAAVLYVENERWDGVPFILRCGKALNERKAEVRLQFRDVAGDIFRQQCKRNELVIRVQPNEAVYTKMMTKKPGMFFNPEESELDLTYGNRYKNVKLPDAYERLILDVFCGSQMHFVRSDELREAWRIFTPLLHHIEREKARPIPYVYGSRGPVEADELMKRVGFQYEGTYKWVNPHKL
Source text: The compound listed below are screened as inhibitors of purified bovine adrenal G6PDH activity as one predictor of cancer preventive action. The assay for testing the inhibition of purified bovine adrenal G6PDH is according to the procedure by Oertell, G. W. and Rebelein, I. in Biochem. Biophys. Acta, 184, 459-460 (1969).

liver catalase = assay: Liver catalase activity after three weeks of diet treatment; format: in vivo, mouse (female Balb/c); conditions: for CATALASE ACTIVITY / catalase activity, in words: 0.25% of diet; for CATALASE ACTIVITY: control 31.1 ± 6.7, DHEA p < 0.05, clofibrate p < 0.001 vs control; for catalase activity, in words: mice
Protocol: (§1) Female Balb/c mice were housed in polycarbonate cages (6/mice/cage) in animal quarters maintained at 24°±1° C. with 12 hours of light and 12 hours of dark each day. The mice were placed on a diet containing either DHEA, 8354, A, B clofibrate or with no addition. Three weeks later the mice were killed, the livers were perfused with cold saline, weighed, and 5% liver homogenates were prepared for the determination of catalase activity by the spectrophotometric method of Luck (H. Luck, in Method in Enzyme Analysis, H. U. Bergmeyer, Ed. (Verlag Chemie, Weinheim/Bergstrasse, Germany, 1965)). Total protein was measured by the method of Lowry, et al. (O. H. Lowry, N. J. Rosebrough, A. L. Farr, R. J. Randall, J. Biol. Chem., 193, 265 (1951)).

[3] = test system: mouse epidermis (TPA stimulated 3H-thymidine incorporation); assay: TPA stimulation of 3H-thymidine incorporation in mouse epidermis, oral steroid; format: in vivo, mouse (male ICR)
Protocol: (§2) Tumor promoters, such as TPA, stimulate hyperplasia and DNA synthesis when applied to the skin, and it is believed that this stimulation is an important step in the enhancement of tumorigenesis.
Male ICR mice were orally intubated with steroid suspended in sesame oil (0.5 ml/mouse) at the indicated dose. Mice not receiving steroid were given sesame oil alone. One hour later mice received topical application of TPA and 20 hours later the rate of ^3 H-thymidine incorporation into the epidermis was determined as described in Pashko, L. L., Schwartz, A. G., Abou-Gharbia, M., and Swern, D. (1981), Inhibition of DNA synthesis in mouse epidermis and breast epithelium by dehydroepiandrosterone and related steroids, Carcinogenesis, 2,-717-721.
Experimental conditions are the same as in Table 3.

[4] = Liver weight after three weeks of diet treatment; format: in vivo, mouse (female Balb/c); conditions: 0.25% of diet; for LIVER WEIGHT: control 0.057 ± 0.006, DHEA p < 0.05, clofibrate p < 0.002 vs control; for liver weight, in words: mice
Protocol: as §1

[5] = in vivo; cited from earlier work
[6] = Anti-obesity action, body weight, male A/J mice; format: in vivo, mouse (male A/J); conditions: 0.45% in diet
Protocol: Male A/J (5 weeks old) mice were obtained from the
Jackson Laboratory and were housed in polycarbonate cages (6
mice/cage) in animal quarters maintained at 24 ± 1° C. with 12
hours of light and 12 hours of darkness each day. One week
after arrival, the mice were placed on a diet containing
either DHEA, 8353, or without steroid. Animals were weighed

[7] = Estrogenic and anti-estrogenic activity, uterine weight; format: in vivo, rat (female CD); conditions: 60 mg/kg s.c. for 3 days; control 2.02 ± 0.28; DHEA significantly greater than control, p < .001
Protocol: Estrogenic and Anti-Estrogenic Activity
Female CD rats, 26-27 days old, were injected subcutaneously for 3 days with one of the compounds of the present invention at 60 mg/kg in propylene glycol. Controls received propylene glycol alone. On the 4th day, the rats were killed and the uteri were dissected out and weighed.

[8] = Body weight and food consumption in the DMBA binding experiment; format: in vivo, mouse; conditions: two weeks of feeding
Protocol: Binding of [^3 H]DMBA to mouse skin DNA was determined as described in Pashko, L. L., and Schwartz, A. G. (1983), Effect of food restriction, dehydroepiandrosterone, or obesity on the binding of ^3 H-7,12-dimethylbenz(a)anthracene to mouse skin DNA, J. Gerontol., 38, 8-12. Values are mean±SD for 3 individual determinations, with pooled tissue from 2 mice used for each determination. DHEA or testosterone (400 ug in 0.2 ml acetone) was applied to the skin one hour before [^3 H]DMBA. The mean weight of the food restricted mice was 18.5±1.0 gm, n=6, of the ad libitum fed, 27.4±1.0 gm, n=6, of the ad libitum fed treated with DHEA, 28.2±0.9 gm, n=6, and of the ad libitum fed treated with testosterone, 28.3±0.9 gm, n=6, following two weeks of feeding. The average food consumed was, in gm/mouse/day, 2.2, 3.8, 3.8 and 4.0 for the food restricted, ad libitum fed, ad libitum fed plus DHEA, and ad libitum fed plus testosterone groups, respectively.

[9] = test system: mouse epidermal DNA (TPA stimulated 3H-thymidine incorporation); assay: TPA stimulation of 3H-thymidine incorporation in epidermis, topical steroid; format: in vivo, mouse (A/J); conditions: no steroid 66, TPA alone 174
Protocol: as §2
Incorporation of ^3 H-thymidine into A/J mouse epidermal DNA was determined as described in Pashko, L. L., Schwartz, A. G., Abou-Gharbia, M. and Swern, D. (1981), Inhibition of DNA synthesis in mouse epidermis and breast epithelium by dehydroepiandrosterone and related steroids, Carcinogenesis, 2, 717-721. Values are mean±SD for 3 separately treated mice in each group 20 hours after TPA application. DHEA or testosterone was added topically in 0.2 ml acetone one hour before TPA addition.

[10] = Table 3, oral 25 mg/kg, no steroid 70.2, TPA alone 154
[11] = Table 3, oral 50 mg/kg, no steroid 70.2, TPA alone 154
[12] = Table 3, oral 100 mg/kg, no steroid 70.2, TPA alone 154

Row | SMILES | effect on 3H-DMBA binding to skin DNA (mouse skin DNA) | Percent Inhibition of G6PDH ([2]; 10^-5 M) | inhibition at 10 µM ([2]; 10^-5 M) | inhibition at 1 µM ([2]; 10^-6 M) | Percent Inhibition of G6PDH ([2]; 10^-7 M) | inhibition at 0.1 µM ([2]; 10^-7 M) | CATALASE ACTIVITY (liver catalase) | catalase activity, in words (liver catalase) | LIVER WEIGHT [4] | liver weight, in words [4] | Percent Inhibition of G6PDH ([2]; 10^-6 M) | effect on liver (type of hepatomegaly) [5] | other results
1 | C[C@]12CCCC[C@@H]1CC[C@@H]1[C@@H]2CC[C@]2(C)C(=O)[C@H](O)C[C@@H]12 [A] | inhibit ^3 H-DMBA binding to skin DNA | 92% and 91% | 94% | 72% | 25% | 17% | 42.3 ± 7.2 Units per mg protein | no effect on liver weight or catalase activity | 0.058 ± 0.004 gm/gm body weight | no effect on liver weight; also recorded: neither increased liver weight |  |  | estrogenic and androgenic side-effects [1]: lacking the estrogenic and androgenic side-effects of DHEA; SPECIFIC ACTIVITY, TPA stimulated 3H-thymidine incorporation [3, 10]: 77.4 ± 10.4 cpm/ug DNA; SPECIFIC ACTIVITY, TPA stimulated 3H-thymidine incorporation [3, 11]: 35.2 ± 1.8 cpm/ug DNA; SPECIFIC ACTIVITY, TPA stimulated 3H-thymidine incorporation [3, 12]: 8.1 ± 4.1 cpm/ug DNA
2 | C[C@]12CCCC[C@@H]1CC[C@@H]1[C@@H]2CC[C@]2(C)C(=O)[C@H](F)C[C@@H]12 [B] | inhibit ^3 H-DMBA binding to skin DNA |  | 96% | 82% |  | 36% | 32.2 ± 6.0 Units per mg protein | no effect on liver weight or catalase activity | 0.061 ± 0.002 gm/gm body weight | no effect on liver weight; also recorded: neither increased liver weight | 84% |  | estrogenic and androgenic side-effects [1]: lacking the estrogenic and androgenic side-effects of DHEA; SPECIFIC ACTIVITY, TPA stimulated 3H-thymidine incorporation [3, 10]: 66.1 ± 9.8 cpm/ug DNA; SPECIFIC ACTIVITY, TPA stimulated 3H-thymidine incorporation [3, 11]: 25.6 ± 4.0 cpm/ug DNA; SPECIFIC ACTIVITY, TPA stimulated 3H-thymidine incorporation [3, 12]: 7.2 ± 3.8 cpm/ug DNA
3 | C[C@@H]1C[C@H]2[C@@H]3CC=C4CCCC[C@]4(C)[C@H]3CC[C@]2(C)C1=O [C] |  | 52% | 54% | 33% | 24% | 20% |  |  |  |  | 31% |  | 
4 | CCOC(=O)C(C)(C)Oc1ccc(Cl)cc1 [Clofibrate, clofibrate, reference compound] |  |  |  |  |  |  | 92.1 ± 8.9 Units per mg protein | stimulated catalase activity | 0.084 ± 0.006 gm/gm body weight | increased liver weight; also recorded: hepatomegaly |  | Typical peroxisome proliferators | increase in liver catalase specific activity (liver catalase; 0.25%, vs control): threefold
5 | C[C@]12CCCCC1=CC[C@@H]1[C@@H]2CC[C@]2(C)C(=O)[C@H](O)C[C@@H]12 [Compound 8353] | inhibit ^3 H-DMBA binding to skin DNA |  | 77% | 30% |  |  |  |  |  |  | 36% and 29% and 38% |  | SPECIFIC ACTIVITY, TPA stimulated 3H-thymidine incorporation ([3]; Table 8, 75 mg/kg, p.o.): 15.9 ± 2.4 cpm/ug DNA; SPECIFIC ACTIVITY, TPA stimulated 3H-thymidine incorporation ([3]; Table 8, 150 mg/kg, p.o.): 14.0 ± 1.1 cpm/ug DNA; SPECIFIC ACTIVITY, TPA stimulated 3H-thymidine incorporation ([3]; Table 8, 200 mg/kg, p.o.): 14.3 ± 1.7 cpm/ug DNA; mean weekly weight ± S.D. ([6]; week 0, control 23 ± 1.5): 23.3 ± 1.6 grams; mean weekly weight ± S.D. ([6]; week 1, control 25.0 ± 1.6): 21.1 ± 1.4 grams; mean weekly weight ± S.D. ([6]; week 2, control 27.0 ± 1.6): 21.9 ± 1.0 grams; mean weekly weight ± S.D. ([6]; week 3, control 27.3 ± 1.6): 23.6 ± 1.5 grams; mean weekly weight ± S.D. ([6]; week 4, control 27.5 ± 1.9): 23.5 ± 1.5 grams; Mean Uterine Weight ± S.D. [7]: 2.15 ± 0.17 mg/100 gm body weight
6 | Clc1ccc(C(c2ccc(Cl)cc2)C(Cl)(Cl)Cl)cc1 [DDT] |  |  |  |  |  |  |  |  |  |  |  | stimulate proliferation of smooth endoplasmic reticulum in liver cells and induce microsomal drug metabolizing enzymes | 
7 | C[C@H]1C[C@H]2[C@@H]3CC=C4CCCC[C@]4(C)[C@H]3CC[C@]2(C)C1=O [D] |  | 47% | 44% | 13% |  |  |  |  |  |  | 20% |  | 
8 | C[C@]12CCCCC1=CC[C@@H]1[C@@H]2CC[C@]2(C)C(=O)[C@](C)(F)C[C@@H]12 [F] |  |  | 82% | 66% | 34% | 28% |  |  |  |  | 69% |  | 
9 | CCC1(c2ccccc2)C(=O)NC(=O)NC1=O [phenobarbital] |  |  |  |  |  |  |  |  |  |  |  | stimulate proliferation of smooth endoplasmic reticulum in liver cells and induce microsomal drug metabolizing enzymes | 
10 | C[C@]12CC[C@H]3[C@@H](CCC4=CC(=O)CC[C@@]43C)[C@@H]1CC[C@@H]2O [testosterone] |  |  |  |  |  |  |  |  |  |  |  |  | SPECIFIC ACTIVITY, (3H) DMBA binding to skin DNA (mouse skin DNA; 400 ug topical one hour before DMBA, ad libitum fed 116 ± 5.2): 164 ± 8.4 cpm/ug DNA; effect on rate of binding of 3H-DMBA to skin DNA (mouse skin DNA; topical, in words (Table 4)): without inhibitory effect; mean body weight ([8]; topical 400 ug, ad libitum fed 27.4±1.0): 28.3±0.9 gm; average food consumed ([8]; ad libitum fed 3.8): 4.0 gm/mouse/day; SPECIFIC ACTIVITY, TPA stimulated 3H-thymidine incorporation ([9]; topical 100 ug): 128 ± 13 cpm/ug DNA; SPECIFIC ACTIVITY, TPA stimulated 3H-thymidine incorporation ([9]; topical 400 ug): 142 ± 5.9 cpm/ug DNA
